Experimental data as given in the NIST ThermoML archive (doi:10.1021/je060291c).
Values joined by “and” are separate entries in the source; they are usually repeats but may differ in a detail not shown here. Identical values can stand only once. Numbers after ± are expanded uncertainties.

Experiment: wn = mass fraction of the nth substance listed
Conditions: Liquid, Pulse-echo method, w2 = 0.49

CC(F)(F)F [1,1,1-trifluoroethane] + FC(F)C(F)(F)F
speed of sound
Conditions	308.19 K	318.2 K	328.17 K	338.18 K
2120 kPa	–	270.3 ± 1.4 m/s	–	–
2180 kPa	–	272.6 ± 1.4 m/s	–	–
2250 kPa	–	274.9 ± 1.4 m/s	–	–
2360 kPa	–	278.2 ± 1.4 m/s	–	–
2510 kPa	–	282.9 ± 1.4 m/s	–	–
2660 kPa	–	–	211.8 ± 1.4 m/s and 211.9 ± 1.4 m/s	–
2750 kPa	–	290.4 ± 1.4 m/s	216.9 ± 1.4 m/s	–
2880 kPa	–	–	223.4 ± 1.4 m/s	–
3010 kPa	–	297.5 ± 1.3 m/s	229.4 ± 1.4 m/s	–
3380 kPa	–	–	–	154.6 ± 1.5 m/s
3440 kPa	–	–	–	160.1 ± 1.5 m/s
3500 kPa	–	310.3 ± 1.3 m/s	249.7 ± 1.4 m/s	165.9 ± 1.5 m/s
3660 kPa	–	–	–	178.1 ± 1.5 m/s
3830 kPa	–	–	–	189 ± 1.4 m/s
4000 kPa	–	322.1 ± 1.3 m/s	266.3 ± 1.3 m/s	199.1 ± 1.4 m/s
4250 kPa	–	–	–	211.1 ± 1.4 m/s
4500 kPa	–	333 ± 1.3 m/s	280.9 ± 1.3 m/s	221.8 ± 1.3 m/s
5000 kPa	–	343.1 ± 1.3 m/s	294 ± 1.3 m/s	240.3 ± 1.3 m/s
6010 kPa	–	361.7 ± 1.3 m/s	316.6 ± 1.3 m/s	269.8 ± 1.3 m/s
7010 kPa	–	378.2 ± 1.3 m/s	336.3 ± 1.3 m/s	293.8 ± 1.3 m/s
8000 kPa	–	393.4 ± 1.3 m/s	353.7 ± 1.3 m/s and 354 ± 1.3 m/s and 353.9 ± 1.3 m/s	314.4 ± 1.3 m/s
9000 kPa	–	407.7 ± 1.3 m/s	370 ± 1.3 m/s	333 ± 1.3 m/s
10000 kPa	–	420.9 ± 1.3 m/s	384.7 ± 1.3 m/s	349.3 ± 1.3 m/s
12000 kPa	–	445 ± 1.3 m/s	411.3 ± 1.3 m/s	378.7 ± 1.3 m/s
14000 kPa	–	466.9 ± 1.3 m/s	435.1 ± 1.3 m/s	404.3 ± 1.3 m/s
16010 kPa	–	487 ± 1.3 m/s	456.6 ± 1.3 m/s	427.4 ± 1.3 m/s
18000 kPa	–	505.5 ± 1.3 m/s	476.5 ± 1.3 m/s	448.3 ± 1.3 m/s
20000 kPa	–	523 ± 1.3 m/s	494.7 ± 1.3 m/s	467.8 ± 1.3 m/s
23000 kPa	–	547.4 ± 1.3 m/s	520.4 ± 1.3 m/s	494.6 ± 1.3 m/s
26000 kPa	–	569.9 ± 1.3 m/s	543.8 ± 1.3 m/s	519 ± 1.3 m/s
29010 kPa	–	591 ± 1.3 m/s	565.9 ± 1.3 m/s	541.7 ± 1.3 m/s
32000 kPa	–	610.7 ± 1.3 m/s	586.4 ± 1.3 m/s	563 ± 1.3 m/s
35000 kPa	–	629.4 ± 1.3 m/s	605.5 ± 1.3 m/s and 605.8 ± 1.3 m/s	583 ± 1.3 m/s
40000 kPa	–	658.7 ± 1.3 m/s	635.7 ± 1.3 m/s	613.8 ± 1.3 m/s
45000 kPa	–	685.8 ± 1.3 m/s	663.5 ± 1.3 m/s	642.4 ± 1.3 m/s
50000 kPa	–	711.3 ± 1.3 m/s	689.5 ± 1.3 m/s	669 ± 1.3 m/s
55000 kPa	757.3 ± 1.3 m/s and 757.1 ± 1.3 m/s	734.9 ± 1.3 m/s	714.1 ± 1.3 m/s	693.9 ± 1.3 m/s
60000 kPa	779.5 ± 1.3 m/s	757.7 ± 1.3 m/s	737.1 ± 1.3 m/s	717.2 ± 1.3 m/s
65000 kPa	800.7 ± 1.3 m/s	779.3 ± 1.3 m/s	759 ± 1.3 m/s	739.8 ± 1.3 m/s

Conditions	speed of sound [m/s]
308.19 K	324.2 ± 1.3
318.2 K	270.3 ± 1.3
328.17 K	211.8 ± 1.3
